Patent publication US11787775B2, “Therapeutic compounds and methods of use” (priority 2020, dated 2023)

What was measured:
Assay type in all cases: binding
TEAD1 = TEAD1 (Homo sapiens (Human), UniProt P28347); experiment: TEAD lipid pocket TR-FRET (Lipid HTRF) probe competition assay; details: 30 mins incubation with compound; read-out: Lipid HTRF TEAD1 IC50
Procedure: (§1) His-tagged TEAD proteins are pre-incubated with TEAD project compounds for 30 minutes or 4 hours at room temperature. Biotinylated lipid pocket probes are then added to the TEAD/Compound mixture and incubated for 60 minutes at room temperature. The lipid pocket probe competes with the test compound for the TEAD lipid pocket until equilibrium is reached. After 60 minutes, Europium labelled anti-His (Perkin Elmer #ADO 110) and XL665 labelled streptavidin (CIS Bio 610SAXAC) are added to the TEAD/test compound/lipid pocket mixture and incubated for 30 minutes or 4 hours. […] If a TEAD lipid pocket binder such as binds and displaces the lipid pocket probe, the disruption of the TEAD:probe interaction results in a decrease in TR-FRET signal. The potency of compounds as TEAD lipid pocket binders is determined by IC50 value generated using a non-linear 4 parameter curve fit.
(§2) Note that the “Compound Number” in Table 2 and Table 3 corresponds to the “Compound Number” in Table 1.

TEAD2 = TEAD2 (Homo sapiens (Human), UniProt Q15562); experiment: as above; details: 30 mins incubation with compound; read-out: Lipid HTRF TEAD2 IC50
Procedure: as §1, §2

TEAD3 = TEAD3 (Homo sapiens (Human), UniProt Q99594); experiment: as above; details: 30 mins incubation with compound
Procedure: as §1, §2

TEAD4 = TEAD4 (Homo sapiens (Human), UniProt Q15561); experiment: as above; details: 30 mins incubation with compound; read-out: Lipid HTRF TEAD4 IC50
Procedure: as §1, §2

TEAD1 YAP50-100 = TEAD1 YAP50-100 (Homo sapiens (Human), UniProt P28347); experiment: TEAD-YAP protein-protein interaction HTRF assay; details: TEAD1 YAP50-100 HTRF combined EC50, 30 mins incubation with compound
Procedure: (§3) Purified His-tagged TEAD protein (YAP Binding Domain, amino acids 217-447) is pre-incubated with Europium labelled anti-His antibody tracer (Perkin Elmer Cat #AD0110). Small molecule Inhibitors are then incubated with the TEAD-Eu protein complex for 30 minutes or 4 hours to allow for binding to TEAD protein. Biotinylated YAP peptide for TEAD-YAP assays (AA's 50-100) or biotinylated TAZ peptide for TEAD-TAZ assays (AA's 13-57) that has been pre-incubated with streptavidin −xl665 acceptor (CIS-Bio Cat #610SAXAC) or is added to the compound-TEAD mix. The TEAD-YAP-inhibitor mixture is then incubated for 60 minutes at room temperature. All reactions are carried out in a polystyrene plate. After 60 minutes, the plate is read on a plate reader using TR-FRET mode with wavelengths of 665 nm/615 nm. If YAP or TAZ binds to TEAD as expected, a TR-FRET signal results from the proximity of YAP or TAZ and TEAD after binding. If an inhibitor such as peptide 17 (Selleckchem Cat #S8164) interferes with YAP-TEAD or TAZ-TEAD binding, the disruption of the YAP or TAZ:TEAD interaction results in a decrease in TR-FRET signal. The potency of compounds as YAP:TEAD or TAZ:TEAD protein-protein interaction (PPi) inhibitors is determined by an IC50 or EC50 value generated using a non-linear four parameter curve fit. The extent to which representative examples of the disclosed compounds are able to inhibit interaction between TEAD1, TEAD2, TEAD3 or TEAD4 and YAP truncated from amino acids 50-100 or TAZ truncated from amino acids 13-57 as measured by Homogeneous Time Resolved Fluorescence (HTRF) to generate EC50 and IC50 data.
(§4) Note that the “Compound Number” in Table 4 corresponds to the “Compound Number” in Table 1. […]

TEAD2 YAP50-100 = TEAD2 YAP50-100 (Homo sapiens (Human), UniProt Q15562); experiment: TEAD-YAP protein-protein interaction HTRF assay; details: TEAD2 YAP50-100 HTRF combined EC50, 30 mins incubation with compound
Procedure: as §3, §4

TEAD3 YAP50-100 = TEAD3 YAP50-100 (Homo sapiens (Human), UniProt Q99594); experiment: TEAD-YAP protein-protein interaction HTRF assay; details: TEAD3 YAP50-100 HTRF combined EC50, 30 mins incubation with compound
Procedure: as §3, §4

TEAD4 YAP50-100 = TEAD4 YAP50-100 (Homo sapiens (Human), UniProt Q15561); experiment: TEAD-YAP protein-protein interaction HTRF assay; details: TEAD4 YAP50-100 HTRF combined EC50, 30 mins incubation with compound
Procedure: as §3, §4

Sequence of TEAD4 (Q15561 whole entry, species assumed): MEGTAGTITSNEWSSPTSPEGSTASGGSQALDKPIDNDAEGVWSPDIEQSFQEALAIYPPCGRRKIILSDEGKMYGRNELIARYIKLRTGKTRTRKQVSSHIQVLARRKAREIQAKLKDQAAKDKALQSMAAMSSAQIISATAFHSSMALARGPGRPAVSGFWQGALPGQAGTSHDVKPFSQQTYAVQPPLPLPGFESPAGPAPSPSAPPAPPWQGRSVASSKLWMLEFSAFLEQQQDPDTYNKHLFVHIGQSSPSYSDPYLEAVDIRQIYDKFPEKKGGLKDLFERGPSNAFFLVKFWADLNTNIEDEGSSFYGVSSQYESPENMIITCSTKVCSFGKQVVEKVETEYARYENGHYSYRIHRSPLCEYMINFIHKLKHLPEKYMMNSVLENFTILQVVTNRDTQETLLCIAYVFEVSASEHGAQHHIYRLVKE
Sequence of TEAD2 YAP50-100 (Q15562 217-447): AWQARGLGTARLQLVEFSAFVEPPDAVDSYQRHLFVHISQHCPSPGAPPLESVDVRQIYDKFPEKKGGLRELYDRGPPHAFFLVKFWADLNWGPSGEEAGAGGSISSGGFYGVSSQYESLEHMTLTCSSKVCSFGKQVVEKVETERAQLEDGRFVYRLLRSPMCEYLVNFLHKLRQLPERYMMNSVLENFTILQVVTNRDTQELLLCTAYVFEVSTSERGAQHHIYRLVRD
Sequence of TEAD3 (Q99594 whole entry, species assumed): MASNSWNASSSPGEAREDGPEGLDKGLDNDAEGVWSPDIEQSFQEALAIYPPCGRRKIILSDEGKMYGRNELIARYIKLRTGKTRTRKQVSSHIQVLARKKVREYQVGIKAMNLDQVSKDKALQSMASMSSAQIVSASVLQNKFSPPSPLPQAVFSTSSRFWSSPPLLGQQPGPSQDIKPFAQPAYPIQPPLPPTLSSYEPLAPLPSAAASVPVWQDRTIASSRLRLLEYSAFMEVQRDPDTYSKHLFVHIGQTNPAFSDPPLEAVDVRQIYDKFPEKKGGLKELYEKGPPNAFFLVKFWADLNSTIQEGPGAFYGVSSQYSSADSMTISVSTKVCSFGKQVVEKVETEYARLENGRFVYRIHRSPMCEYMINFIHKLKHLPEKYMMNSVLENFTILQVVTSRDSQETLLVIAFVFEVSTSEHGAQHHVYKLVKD
Sequence of TEAD2 (Q15562 whole entry): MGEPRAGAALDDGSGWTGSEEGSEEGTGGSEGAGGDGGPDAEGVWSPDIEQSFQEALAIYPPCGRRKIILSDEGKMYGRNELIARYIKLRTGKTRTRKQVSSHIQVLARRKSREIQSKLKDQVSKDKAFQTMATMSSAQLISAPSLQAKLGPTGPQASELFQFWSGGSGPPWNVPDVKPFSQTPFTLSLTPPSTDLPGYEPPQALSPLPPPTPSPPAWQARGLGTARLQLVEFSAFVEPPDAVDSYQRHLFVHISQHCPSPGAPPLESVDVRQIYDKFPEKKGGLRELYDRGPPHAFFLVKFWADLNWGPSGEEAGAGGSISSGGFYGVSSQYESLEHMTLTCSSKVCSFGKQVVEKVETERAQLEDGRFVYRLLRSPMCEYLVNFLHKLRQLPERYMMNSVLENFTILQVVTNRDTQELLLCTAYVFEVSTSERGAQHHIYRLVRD
Sequence of TEAD1 (P28347 whole entry, species assumed): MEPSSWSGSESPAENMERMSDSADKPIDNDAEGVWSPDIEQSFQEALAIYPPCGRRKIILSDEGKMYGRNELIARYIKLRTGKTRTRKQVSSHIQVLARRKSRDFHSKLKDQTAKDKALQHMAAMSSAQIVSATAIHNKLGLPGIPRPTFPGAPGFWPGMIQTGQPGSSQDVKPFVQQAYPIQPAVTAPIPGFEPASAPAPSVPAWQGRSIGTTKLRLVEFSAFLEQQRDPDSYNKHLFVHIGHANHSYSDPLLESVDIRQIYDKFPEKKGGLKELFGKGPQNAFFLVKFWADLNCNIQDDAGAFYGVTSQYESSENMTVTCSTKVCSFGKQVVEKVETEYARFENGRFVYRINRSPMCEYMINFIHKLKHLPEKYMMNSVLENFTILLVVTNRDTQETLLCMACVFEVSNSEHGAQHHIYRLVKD
Sequence of TEAD3 YAP50-100 (Q99594 218-435): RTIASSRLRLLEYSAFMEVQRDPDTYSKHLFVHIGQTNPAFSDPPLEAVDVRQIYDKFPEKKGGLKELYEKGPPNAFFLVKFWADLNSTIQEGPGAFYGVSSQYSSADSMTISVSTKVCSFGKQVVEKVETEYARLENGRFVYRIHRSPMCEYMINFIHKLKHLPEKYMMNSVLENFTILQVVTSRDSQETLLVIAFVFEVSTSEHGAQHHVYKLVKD
Sequence of TEAD4 YAP50-100 (Q15561 217-434): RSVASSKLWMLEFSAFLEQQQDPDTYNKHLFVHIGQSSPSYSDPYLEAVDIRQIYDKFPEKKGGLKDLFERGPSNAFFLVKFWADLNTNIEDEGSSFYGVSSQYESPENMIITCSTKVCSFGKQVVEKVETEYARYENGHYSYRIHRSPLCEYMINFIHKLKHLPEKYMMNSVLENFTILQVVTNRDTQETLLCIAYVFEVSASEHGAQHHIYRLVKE
Sequence of TEAD1 YAP50-100 (P28347 209-426): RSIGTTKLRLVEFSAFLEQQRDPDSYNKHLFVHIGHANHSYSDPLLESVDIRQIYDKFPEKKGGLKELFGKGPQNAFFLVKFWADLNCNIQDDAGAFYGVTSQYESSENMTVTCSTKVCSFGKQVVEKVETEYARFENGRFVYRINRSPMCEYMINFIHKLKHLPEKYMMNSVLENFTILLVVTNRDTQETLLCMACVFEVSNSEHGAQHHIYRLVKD

| Compound | IC50 (TEAD1) | IC50 (TEAD2) | IC50 (TEAD3) | IC50 (TEAD4) | EC50 (TEAD1 YAP50-100) | EC50 (TEAD2 YAP50-100) | EC50 (TEAD3 YAP50-100) | EC50 (TEAD4 YAP50-100) |
| --- | --- | --- | --- | --- | --- | --- | --- | --- |
| C=C(CNc1cc(-c2ccc(C(F)(F)F)cc2)c2c(c1C#N)CCO2)C(=O)O [Compound 15, 2-[[[4-cyano-7-[4-(trifluoromethyl)phenyl]-2,3-dihydrobenzofuran-5-yl]amino]methyl]prop-2-enoic acid] | 50 nM | 530 nM | 3400 nM | 110 nM | 40 nM | 380 nM | 11000 nM | 250 nM |
| C=C(CNc1cc(-c2ccc(OC(F)(F)F)cc2)c2c(c1C#N)CCO2)C(=O)O [Compound 18, 2-[[[4-cyano-7-[4-(trifluoromethoxy)phenyl]-2,3-dihydrobenzofuran-5-yl]amino]methyl]prop-2-enoic acid] | 30 nM | 140 nM | 2500 nM | 30 nM | 20 nM | 90 nM | 7800 nM | 60 nM |
| C=C(CNc1cc(-c2ccc(C(C)(F)F)cc2)c2c(c1C#N)CCO2)C(=O)O [Compound 19, 2-[[[4-cyano-7-[4-(1,1-difluoroethyl)phenyl]-2,3-dihydrobenzofuran-5-yl]amino]methyl]prop-2-enoic acid] | 50 nM | 350 nM | 6400 nM | 110 nM | 40 nM | 190 nM | 15000 nM | 230 nM |
| C=C(CNc1nc2c(c(-c3ccc(C(C)C)cc3)n1)OCC2)C(=O)O [Compound 20, 2-[[[4-(4-isopropylphenyl)-6,7-dihydrofuro[3,2-d]pyrimidin-2-yl]amino]methyl]prop-2-enoic acid] | 200 nM | 70 nM | 3800 nM | 20 nM | 150 nM | 40 nM | > 50000 nM | 40 nM |
| C=C(CNc1cc(-c2ccc(C(C)C)cc2)c2c(c1F)CCO2)C(=O)O [Compound 21, 2-[[[4-fluoro-7-(4-isopropylphenyl)-2,3-dihydrobenzofuran-5-yl]amino]methyl]prop-2-enoic acid] | 60 nM | 70 nM | 4000 nM | 20 nM | 40 nM | < 10 nM | > 50000 nM | 30 nM |
| C=C(CNc1nc(-c2ccc(C(C)C)cc2)c2c(c1C#N)CCO2)C(=O)O [Compound 22, 2-[[[4-cyano-7-(4-isopropylphenyl)-2,3-dihydrofuro[2,3-c]pyridin-5-yl]amino]methyl]prop-2-enoic acid] | 90 nM | 100 nM | 15000 nM | 50 nM | 60 nM | 60 nM | > 50000 nM | 100 nM |
| C=C(CNc1cc(-c2ccc(C(C)(F)F)cc2)c2ncsc2c1C#N)C(=O)O [Compound 24, 2-[[[7-cyano-4-[4-(1,1-difluoroethyl)phenyl]-1,3-benzothiazol-6-yl]amino]methyl]prop-2-enoic acid] | 160 nM | 740 nM | 20000 nM | 370 nM | 80 nM | 260 nM | 15000 nM | > 50000 nM |
| C=C(CNc1cnc(OC)c(/C=C/[C@H]2CC[C@H](C(F)(F)F)CC2)c1)C(=O)O [Compound 25, 2-[[[6-methoxy-5-[(E)-2-[trans-4-(trifluoromethyl)cyclohexyl]vinyl]-3-pyridyl]amino]methyl]prop-2-enoic acid] | 580 nM | 270 nM | 1250 nM | 140 nM | > 50000 nM | > 50000 nM | > 50000 nM | > 50000 nM |
| C=C(CNc1cc(-c2c(F)cc(C(C)C)cc2F)c2c(c1C#N)CCO2)C(=O)O [Compound 28, 2-[[[4-cyano-7-(2,6-difluoro-4-isopropyl-phenyl)-2,3-dihydrobenzofuran-5-yl]amino]methyl]prop-2-enoic acid] | 690 nM | 350 nM | 16000 nM | 320 nM | > 50000 nM | > 50000 nM | > 50000 nM | > 50000 nM |
| C=C(CNc1cc(-c2ccc(C(C)C)cc2F)c2c(c1C#N)CCO2)C(=O)O [Compound 30, 2-[[[4-cyano-7-(2-fluoro-4-isopropyl-phenyl)-2,3-dihydrobenzofuran-5-yl]amino]methyl]prop-2-enoic acid] | 50 nM | 100 nM | 5900 nM | 30 nM | 30 nM | 40 nM | 8200 nM | 40 nM |
| C=C(CNc1cc(-c2ccc(C(C)C)cc2)c2c(c1C(N)=O)CCO2)C(=O)O [Compound 34, 2-[[[4-carbamoyl-7-(4-isopropylphenyl)-2,3-dihydrobenzofuran-5-yl]amino]methyl]prop-2-enoic acid] | 1800 nM | 970 nM | > 50000 nM | 330 nM | 1000 nM | 580 nM | > 50000 nM | 700 nM |
| C=C(CNc1cc(-c2ccc(OC(F)(F)F)cc2)c2ncsc2c1C#N)C(N)=O [Compound 42, 2-[[[7-cyano-4-[4-(trifluoromethoxy)phenyl]-1,3-benzothiazol-6-yl]amino]methyl]prop-2-enamide] | 370 nM | 140 nM | > 50000 nM | 260 nM | > 50000 nM | > 50000 nM | > 50000 nM | > 50000 nM |
| C=C(CNc1cc(-c2ccc(C(C)C)cn2)c2c(c1C#N)CCO2)C(=O)O [Compound 47, 2-[[[4-cyano-7-(5-isopropyl-2-pyridyl)-2,3-dihydrobenzofuran-5-yl]amino]methyl]prop-2-enoic acid] | 2200 nM | 2700 nM | > 50000 nM | 1500 nM | 1900 nM | 1900 nM | > 50000 nM | 3400 nM |
| C=C(CNc1cc(-c2ccc(C(C)C)cc2)c2c(c1S(C)(=O)=O)CCO2)C(=O)O [Compound 50, 2-[[[7-(4-isopropylphenyl)-4-methylsulfonyl-2,3-dihydrobenzofuran-5-yl]amino]methyl]prop-2-enoic acid] | 740 nM | 100 nM | 44500 nM | 590 nM | 530 nM | 80 nM | 17000 nM | 2000 nM |
